# Measured values reported in article PMC5218480 (PLoS ONE, 2017).
# Tested on: MV-4-11 cells
# Assay: Gene expression microarray analysis (Affymetrix PrimeView) and GSEA
# Assay type: cell-based, human
# Design: RFU PODN (11730768_x_at) / Fold change /veh PODN (11730768_x_at) / RFU LINC00158 (11744669_a_at) / Fold change /veh LINC00158 (11744669_a_at) / RFU DUSP10 (11751237_a_at) / Fold change /veh DUSP10 (11751237_a_at) / RFU ID3 (11757404_x_at) / Fold change /veh ID3 (11757404_x_at) / RFU PLEKHG5 (11737974_s_at) / Fold change /veh PLEKHG5 (11737974_s_at) / RFU LRRC4B (11730491_at) / Fold change /veh LRRC4B (11730491_at) / RFU GIMAP4 (11747438_a_at) / Fold change /veh GIMAP4 (11747438_a_at) / RFU KRT8 (11758183_x_at) / Fold change /veh KRT8 (11758183_x_at) / RFU CNN1 (11734310_a_at) / Fold change /veh CNN1 (11734310_a_at) / RFU VPS37D (11726825_at) / Fold change /veh VPS37D (11726825_at) / RFU C10orf10 (11716522_x_at) / Fold change /veh C10orf10 (11716522_x_at) / RFU KIR2DL2 /// KIR2DL4 /// KIR2DL5A /// KIR2DL5B /// KIR2DS1 /// KIR2DS2 /// KIR2DS3 /// KIR2DS4 /// KIR3DL3 /// KIR3DL3 /// KIR3DS1 (11738374_at) / Fold change /veh KIR2DL2 /// KIR2DL4 /// KIR2DL5A /// KIR2DL5B /// KIR2DS1 /// KIR2DS2 /// KIR2DS3 /// KIR2DS4 /// KIR3DL3 /// KIR3DL3 /// KIR3DS1 (11738374_at) / RFU C1QL1 (11718748_at) / Fold change /veh C1QL1 (11718748_at) / RFU TMPRSS4 (11747572_a_at) / Fold change /veh TMPRSS4 (11747572_a_at) / RFU HAMP (11756126_x_at) / Fold change /veh HAMP (11756126_x_at) / RFU RNFT2 (11725882_a_at) / Fold change /veh RNFT2 (11725882_a_at) / RFU NR4A2 (11747474_a_at) / Fold change /veh NR4A2 (11747474_a_at) / RFU ABCC12 (11746883_a_at) / Fold change /veh ABCC12 (11746883_a_at) / RFU TMEM136 (11760407_x_at) / Fold change /veh TMEM136 (11760407_x_at) / RFU CLDN22 /// WWC2 (11732394_at) / Fold change /veh CLDN22 /// WWC2 (11732394_at) / RFU HLA-DPB1 (11760878_x_at) / Fold change /veh HLA-DPB1 (11760878_x_at) / RFU SPINT1 (11716480_a_at) / Fold change /veh SPINT1 (11716480_a_at) / RFU GAP43 (11754022_s_at) / Fold change /veh GAP43 (11754022_s_at) / RFU A4GNT (11735810_at) / Fold change /veh A4GNT (11735810_at) / RFU PRB3 (11715151_x_at) / Fold change /veh PRB3 (11715151_x_at) / RFU TUBB4B (11761932_at) / Fold change /veh TUBB4B (11761932_at) / RFU CAPN14 (11732068_a_at) / Fold change /veh CAPN14 (11732068_a_at) / RFU TMCC2 (11721928_a_at) / Fold change /veh TMCC2 (11721928_a_at) / RFU IRGQ (11745062_a_at) / Fold change /veh IRGQ (11745062_a_at) / RFU FAM174B (11720279_a_at) / Fold change /veh FAM174B (11720279_a_at) / RFU TMPRSS4 (11748680_a_at) / Fold change /veh TMPRSS4 (11748680_a_at) / RFU FAM212B (11763350_a_at) / Fold change /veh FAM212B (11763350_a_at) / RFU PLEKHG5 (11743358_a_at) / Fold change /veh PLEKHG5 (11743358_a_at) / RFU ZSCAN30 (11745921_a_at) / Fold change /veh ZSCAN30 (11745921_a_at) / RFU CMKLR1 (11741424_a_at) / Fold change /veh CMKLR1 (11741424_a_at) / RFU LOC101060620 /// MAPK8IP1 (11723275_at) / Fold change /veh LOC101060620 /// MAPK8IP1 (11723275_at) / RFU SPTSSB (11747773_x_at) / Fold change /veh SPTSSB (11747773_x_at) / RFU PRSS12 (11739890_at) / Fold change /veh PRSS12 (11739890_at) / RFU BIN1 (11741810_x_at) / Fold change /veh BIN1 (11741810_x_at) / RFU WNT11 (11732464_a_at) / Fold change /veh WNT11 (11732464_a_at) / RFU C10orf10 (11716521_a_at) / Fold change /veh C10orf10 (11716521_a_at) / RFU C5orf56 (11738089_at) / Fold change /veh C5orf56 (11738089_at) / RFU CYB561 (11721691_x_at) / Fold change /veh CYB561 (11721691_x_at) / RFU ANKRD19P (11752326_a_at) / Fold change /veh ANKRD19P (11752326_a_at) / RFU OR2T12 /// OR2T33 /// OR2T8 (11738714_s_at) / Fold change /veh OR2T12 /// OR2T33 /// OR2T8 (11738714_s_at) / RFU VCAN (11748164_a_at) / Fold change /veh VCAN (11748164_a_at) / RFU JSRP1 (11732532_at) / Fold change /veh JSRP1 (11732532_at) / RFU KRTAP10-11 (11738290_x_at) / Fold change /veh KRTAP10-11 (11738290_x_at) / RFU MYO3A (11730013_a_at) / Fold change /veh MYO3A (11730013_a_at) / RFU EBF3 (11725865_a_at) / Fold change /veh EBF3 (11725865_a_at) / RFU CAMK2N1 (11719241_x_at) / Fold change /veh CAMK2N1 (11719241_x_at) / RFU C5orf56 (11738088_a_at) / Fold change /veh C5orf56 (11738088_a_at) / RFU OLFML3 (11715873_a_at) / Fold change /veh OLFML3 (11715873_a_at) / RFU LOC100653217 /// NTM (11731650_a_at) / Fold change /veh LOC100653217 /// NTM (11731650_a_at) / RFU MAPK11 (11762145_a_at) / Fold change /veh MAPK11 (11762145_a_at) / RFU FIZ1 (11724087_x_at) / Fold change /veh FIZ1 (11724087_x_at) / RFU OASL (11726364_x_at) / Fold change /veh OASL (11726364_x_at) / RFU SOX15 (11748057_x_at) / Fold change /veh SOX15 (11748057_x_at) / RFU CD79A (11719716_a_at) / Fold change /veh CD79A (11719716_a_at) / RFU HIST1H1D (11736915_at) / Fold change /veh HIST1H1D (11736915_at) / RFU CASKIN2 (11723855_a_at) / Fold change /veh CASKIN2 (11723855_a_at) / RFU LOC730098 (11760151_x_at) / Fold change /veh LOC730098 (11760151_x_at) / RFU OR4N2 (11742367_at) / Fold change /veh OR4N2 (11742367_at) / RFU PRRT2 (11749266_a_at) / Fold change /veh PRRT2 (11749266_a_at) / RFU SNX32 (11753110_a_at) / Fold change /veh SNX32 (11753110_a_at) / RFU CDHR5 (11726645_a_at) / Fold change /veh CDHR5 (11726645_a_at) / RFU RCAN1 (11760418_a_at) / Fold change /veh RCAN1 (11760418_a_at) / RFU FAM167A (11723789_a_at) / Fold change /veh FAM167A (11723789_a_at) / RFU FAM26E (11764081_at) / Fold change /veh FAM26E (11764081_at) / RFU ISYNA1 (11749810_s_at) / Fold change /veh ISYNA1 (11749810_s_at) / RFU ACY1 (11761880_at) / Fold change /veh ACY1 (11761880_at) / RFU 11764098_at / Fold change /veh 11764098_at / RFU SAMD14 (11745864_x_at) / Fold change /veh SAMD14 (11745864_x_at) / RFU NPB (11741838_a_at) / Fold change /veh NPB (11741838_a_at) / RFU TMPRSS6 (11731388_a_at) / Fold change /veh TMPRSS6 (11731388_a_at) / RFU KRTAP10-2 (11738614_at) / Fold change /veh KRTAP10-2 (11738614_at) / RFU ARHGAP8 /// PRR5-ARHGAP8 (11727945_x_at) / Fold change /veh ARHGAP8 /// PRR5-ARHGAP8 (11727945_x_at) / RFU KRTAP5-7 /// NADSYN1 (11734609_at) / Fold change /veh KRTAP5-7 /// NADSYN1 (11734609_at) / RFU RASL12 (11751679_a_at) / Fold change /veh RASL12 (11751679_a_at) / RFU CDKN2B (11736163_a_at) / Fold change /veh CDKN2B (11736163_a_at) / RFU PRF1 (11729649_at) / Fold change /veh PRF1 (11729649_at) / RFU, ZNF638 /// ZNF638-IT1 / Fold change vs veh, ZNF638 /// ZNF638-IT1 / RFU, PANK3 / Fold change vs veh, PANK3 / RFU, SH3YL1 / Fold change vs veh, SH3YL1 / RFU, ZEB2 / Fold change vs veh, ZEB2 / RFU, NRIP1 / Fold change vs veh, NRIP1 / RFU, PTTG1IP / Fold change vs veh, PTTG1IP / RFU, CAPN2 / Fold change vs veh, CAPN2 / RFU, MED14 / Fold change vs veh, MED14 / RFU, SNORA58 / Fold change vs veh, SNORA58 / RFU, C1orf63 / Fold change vs veh, C1orf63 / RFU, LRRFIP1 / Fold change vs veh, LRRFIP1 / RFU, NDUFAF7 / Fold change vs veh, NDUFAF7 / RFU, SLC12A2 / Fold change vs veh, SLC12A2 / RFU, IBTK / Fold change vs veh, IBTK / RFU, ESF1 / Fold change vs veh, ESF1 / Fold change vs veh, TMEM50B / RFU, TAOK1 / Fold change vs veh, TAOK1 / RFU, ACBD3 / Fold change vs veh, ACBD3 / RFU, TMA16 / Fold change vs veh, TMA16 / RFU, RWDD3 / Fold change vs veh, RWDD3 / RFU, BCAT1 / Fold change vs veh, BCAT1 / RFU, EDEM3 / Fold change vs veh, EDEM3 / RFU, TMEM33 / Fold change vs veh, TMEM33 / RFU, WDR75 / Fold change vs veh, WDR75 / RFU, AHCTF1 / Fold change vs veh, AHCTF1 / RFU, TFRC / Fold change vs veh, TFRC / RFU, ZDHHC17 / Fold change vs veh, ZDHHC17 / RFU, NOM1 / Fold change vs veh, NOM1 / RFU, ARL8B / Fold change vs veh, ARL8B / RFU, ZBTB11 / Fold change vs veh, ZBTB11 / RFU, TAMM41 / Fold change vs veh, TAMM41 / RFU, KIAA1704 /// LOC100996395 / Fold change vs veh, KIAA1704 /// LOC100996395 / RFU, ING1 / Fold change vs veh, ING1 / RFU, TRMT61B / Fold change vs veh, TRMT61B / RFU, FUBP3 / Fold change vs veh, FUBP3 / RFU, TP53 / Fold change vs veh, TP53 / RFU, TNKS2 / Fold change vs veh, TNKS2 / RFU, ZFP14 / Fold change vs veh, ZFP14 / RFU, ACTR2 / Fold change vs veh, ACTR2 / RFU, PPP3R1 / Fold change vs veh, PPP3R1 / RFU, PIK3R1 / Fold change vs veh, PIK3R1 / RFU, HNRNPA1 / Fold change vs veh, HNRNPA1 / RFU, RNF170 / Fold change vs veh, RNF170 / RFU, ZNF28 / Fold change vs veh, ZNF28 / RFU, RNGTT / Fold change vs veh, RNGTT / RFU, OGT / Fold change vs veh, OGT / RFU, BRD1 / Fold change vs veh, BRD1 / RFU, MARS / Fold change vs veh, MARS / RFU, ZNF655 / Fold change vs veh, ZNF655 / RFU, FAHD1 / Fold change vs veh, FAHD1 / RFU, BDP1 / Fold change vs veh, BDP1 / RFU, LRRCC1 / Fold change vs veh, LRRCC1 / RFU, ARID1A / Fold change vs veh, ARID1A / RFU, ZNF146 / Fold change vs veh, ZNF146 / RFU, ZNF330 / Fold change vs veh, ZNF330 / RFU, GPN3 / Fold change vs veh, GPN3 / RFU, C9orf123 / Fold change vs veh, C9orf123 / RFU, N4BP2L2 / Fold change vs veh, N4BP2L2 / RFU, ARFIP1 / Fold change vs veh, ARFIP1 / RFU, FAM179B / Fold change vs veh, FAM179B / RFU, BCL10 / Fold change vs veh, BCL10 / RFU, UHRF1BP1L / Fold change vs veh, UHRF1BP1L / RFU, BET1 / Fold change vs veh, BET1 / RFU, CNOT2 / Fold change vs veh, CNOT2 / RFU, ZNF268 / Fold change vs veh, ZNF268 / Fold change vs veh, ZNF507 / RFU, DGCR2 / Fold change vs veh, DGCR2 / RFU, WDSUB1 / Fold change vs veh, WDSUB1 / Fold change vs veh, HSP90B1 /// MIR3652 / RFU, ADSS / Fold change vs veh, ADSS / RFU, GK / Fold change vs veh, GK / RFU, ZNF148 / Fold change vs veh, ZNF148 / RFU, TAF9 / Fold change vs veh, TAF9 / RFU, SLC1A5 / Fold change vs veh, SLC1A5 / RFU, SLMO2 / Fold change vs veh, SLMO2 / RFU, ABCC4 / Fold change vs veh, ABCC4 / RFU, LOC101060439 /// RAP1B / Fold change vs veh, LOC101060439 /// RAP1B / RFU, RFX7 / Fold change vs veh, RFX7 / RFU, GTPBP10 / Fold change vs veh, GTPBP10 / RFU, CNEP1R1 / Fold change vs veh, CNEP1R1 / RFU, BIVM-ERCC5 /// ERCC5 / Fold change vs veh, BIVM-ERCC5 /// ERCC5 / RFU, ILF3 / Fold change vs veh, ILF3 / RFU 11762660_at / Fold change /veh 11762660_at / RFU VCAN (11757783_s_at) / Fold change /veh VCAN (11757783_s_at) / RFU DDX43 (11728927_at) / Fold change /veh DDX43 (11728927_at) / RFU KRT8 (11758188_x_at) / Fold change /veh KRT8 (11758188_x_at) / RFU NKD1 (11759106_at) / Fold change /veh NKD1 (11759106_at) / RFU SRD5A1 (11742802_a_at) / Fold change /veh SRD5A1 (11742802_a_at) / RFU TPSAB1 /// TPSB2 (11721975_s_at) / Fold change /veh TPSAB1 /// TPSB2 (11721975_s_at) / RFU GSTM3 (11746129_a_at) / Fold change /veh GSTM3 (11746129_a_at) / RFU IL23R (11737362_x_at) / Fold change /veh IL23R (11737362_x_at) / RFU TMEM51 (11727254_a_at) / Fold change /veh TMEM51 (11727254_a_at) / RFU PIWIL2 (11732686_x_at) / Fold change /veh PIWIL2 (11732686_x_at) / RFU ORM1 (11744905_x_at) / Fold change /veh ORM1 (11744905_x_at) / RFU CCDC152 (11743942_at) / Fold change /veh CCDC152 (11743942_at) / RFU ECM1 (11717891_a_at) / Fold change /veh ECM1 (11717891_a_at) / RFU IL23R (11748794_a_at) / Fold change /veh IL23R (11748794_a_at) / RFU TNFAIP8L3 (11732012_x_at) / Fold change /veh TNFAIP8L3 (11732012_x_at) / RFU MBOAT4 (11741988_at) / Fold change /veh MBOAT4 (11741988_at) / RFU 11764193_at / Fold change /veh 11764193_at / RFU TMEM53 (11763286_at) / Fold change /veh TMEM53 (11763286_at) / RFU MAGEB2 (11727129_at) / Fold change /veh MAGEB2 (11727129_at) / RFU TMEM200A (11744735_a_at) / Fold change /veh TMEM200A (11744735_a_at) / RFU CCDC152 (11751479_a_at) / Fold change /veh CCDC152 (11751479_a_at) / RFU FAM211A (11726209_a_at) / Fold change /veh FAM211A (11726209_a_at) / RFU RGS16 (11746705_a_at) / Fold change /veh RGS16 (11746705_a_at) / RFU VCAN (11755009_s_at) / Fold change /veh VCAN (11755009_s_at) / RFU RHOB (11743442_s_at) / Fold change /veh RHOB (11743442_s_at) / RFU RGS16 (11720943_a_at) / Fold change /veh RGS16 (11720943_a_at) / RFU RGS16 (11720944_at) / Fold change /veh RGS16 (11720944_at) / RFU, VPS4B / Fold change vs veh, VPS4B / RFU, CREB1 / Fold change vs veh, CREB1 / RFU, DNAJC13 / Fold change vs veh, DNAJC13 / RFU, GNAQ / Fold change vs veh, GNAQ / RFU, CDK5R1 / Fold change vs veh, CDK5R1 / RFU, ZRANB3 / Fold change vs veh, ZRANB3 / RFU, CUL4A / Fold change vs veh, CUL4A / RFU, CCNY / Fold change vs veh, CCNY / RFU, UFL1 / Fold change vs veh, UFL1 / RFU, COG3 / Fold change vs veh, COG3 / RFU, DIAPH2 / Fold change vs veh, DIAPH2 / RFU, SKA2 / Fold change vs veh, SKA2 / RFU, AFF3 / Fold change vs veh, AFF3 / RFU, LMF1 / Fold change vs veh, LMF1 / RFU, IPO11 / Fold change vs veh, IPO11 / RFU, DFFB / Fold change vs veh, DFFB / RFU, FOXP1 / Fold change vs veh, FOXP1 / RFU, CARD8 / Fold change vs veh, CARD8 / RFU, STRN3 / Fold change vs veh, STRN3 / RFU, ADK / Fold change vs veh, ADK / RFU, RASSF2 / Fold change vs veh, RASSF2 / RFU, WIPF1 / Fold change vs veh, WIPF1 / RFU, LARP1B / Fold change vs veh, LARP1B / RFU, RASA1 / Fold change vs veh, RASA1 / RFU, RB1 / Fold change vs veh, RB1 / RFU, PPFIA1 / Fold change vs veh, PPFIA1 / RFU, MAT2A / Fold change vs veh, MAT2A / RFU, CCT5 / Fold change vs veh, CCT5 / RFU, WDR92 / Fold change vs veh, WDR92 / RFU, CUX1 / Fold change vs veh, CUX1 / RFU, TTC7A / Fold change vs veh, TTC7A / RFU, TMEM135 / Fold change vs veh, TMEM135 / RFU, DEPTOR / Fold change vs veh, DEPTOR / RFU, CPM / Fold change vs veh, CPM / RFU, DNAJB6 / Fold change vs veh, DNAJB6 / RFU, CACNA2D3 / Fold change vs veh, CACNA2D3 / RFU, DTX4 / Fold change vs veh, DTX4 / RFU, TFCP2 / Fold change vs veh, TFCP2 / RFU, GMCL1 /// GMCL1P1 / Fold change vs veh, GMCL1 /// GMCL1P1 / RFU, AEBP2 / Fold change vs veh, AEBP2 / RFU, SNHG1 /// SNORD22 /// SNORD25 /// SNORD26 /// SNORD27 /// SNORD28 /// SNORD29 /// SNORD31 / Fold change vs veh, SNHG1 /// SNORD22 /// SNORD25 /// SNORD26 /// SNORD27 /// SNORD28 /// SNORD29 /// SNORD31 / Fold change (Aza/veh), C12orf56 (ProbeSet 11735607_a_at) / Fold change (ACY-1035/veh), C12orf56 (ProbeSet 11735607_a_at) / Fold change (Aza/veh), FGFR1OP (ProbeSet 11751329_s_at) / Fold change (ACY-1035/veh), FGFR1OP (ProbeSet 11751329_s_at) / Fold change (Aza/veh), VPS36 (ProbeSet 11739960_a_at) / Fold change (ACY-1035/veh), VPS36 (ProbeSet 11739960_a_at) / RFU SYPL1 (11715823_x_at) / Fold change /veh SYPL1 (11715823_x_at) / RFU IGFBP7 (11715501_s_at) / Fold change /veh IGFBP7 (11715501_s_at) / RFU REEP3 (11722064_at) / Fold change /veh REEP3 (11722064_at) / RFU IGLL1 (11728026_x_at) / Fold change /veh IGLL1 (11728026_x_at): dose or concentration left out as unconfirmed
# Conditions: MV-4-11 cells, 48 hours
structure (smiles),measurement,value
Nc1ccc(-c2cccs2)cc1NC(=O)c1ccc2c(c1)cc(C1CC1)n2CCN1CCOCC1 [ACY-1035],Fold change /veh SNX32 (11753110_a_at),1.17
